Results: patent US20150105252A1, “SUBSTITUTED PYRAZOLES AS HERBICIDES” (E I DU PONT DE NEMOURS AND COMPANY, priority 2013, published 2015)

Columns and labels:
[1] = system: pigweed; test: Test A preemergence; assay type: in vivo, Amaranthus retroflexus; conditions: for Pigweed plant response rating (0 to 100 scale): visual injury approx. 10 days after treatment
Procedure, shortened: (§1)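 Greenhouse test in loam soil/sand blend; compounds formulated in non-phytotoxic solvent with surfactant, applied as preemergence directed soil spray or postemergence to plants 2–10 cm tall at one- to two-leaf stage. Injury rated visually versus untreated controls after approximately 10 days on a 0 (no effect) to 100 (complete control) scale.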

[2] = system: corn; test: Test A preemergence; assay type: in vivo, Zea mays; conditions: for Corn plant response rating (0 to 100 scale): visual injury approx. 10 days after treatment
Procedure, shortened: as §1

[3] = system: crabgrass, large; test: Test A preemergence; assay type: in vivo, Digitaria sanguinalis; conditions: for Crabgrass, Large plant response rating (0 to 100 scale): visual injury approx. 10 days after treatment
Procedure, shortened: as §1

[4] = system: crabgrass, large; test: Test A postemergence; assay type: in vivo, Digitaria sanguinalis
Procedure, shortened: as §1

[5] = system: foxtail, giant; test: Test A postemergence; assay type: in vivo, Setaria faberii
Procedure, shortened: as §1

[6] = system: wheat; test: Test A postemergence; assay type: in vivo, Triticum aestivum
Procedure, shortened: as §1

[7] = system: pigweed; test: Test A postemergence; assay type: in vivo, Amaranthus retroflexus
Procedure, shortened: as §1

[8] = system: velvetleaf; test: Test A preemergence; assay type: in vivo, Abutilon theophrasti; conditions: for Velvetleaf plant response rating (0 to 100 scale): visual injury approx. 10 days after treatment
Procedure, shortened: as §1

[9] = system: sedge, umbrella; test: Test B flood; assay type: in vivo, Cyperus difformis; conditions: 250 g ai/ha, visual rating on 0 to 100 scale (0 no effect, 100 complete control), 13 to 15 days
Procedure, shortened: (§2)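 Visual ratings (0 = no effect, 100 = complete control) versus untreated controls were taken 13–15 days after treatment of greenhouse plants. Treatment was added to paddy water held at 3 cm depth on 2-leaf-stage seedlings.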

[10] = system: barnyardgrass; test: Test A preemergence; assay type: in vivo, Echinochloa crus-galli
Procedure, shortened: as §1

[11] = system: ducksalad; test: Test B flood; assay type: in vivo, Heteranthera limosa; conditions: 250 g ai/ha, visual rating on 0 to 100 scale (0 no effect, 100 complete control), 13 to 15 days
Procedure, shortened: as §2

[12] = system: rice; test: Test B flood; assay type: in vivo, Oryza sativa; conditions: 250 g ai/ha, visual rating on 0 to 100 scale (0 no effect, 100 complete control), 13 to 15 days
Procedure, shortened: as §2

[13] = system: morningglory; test: Test A preemergence; assay type: in vivo, Ipomoea spp.; conditions: for Morningglory plant response rating (0 to 100 scale): visual injury approx. 10 days after treatment
Procedure, shortened: as §1

[14] = system: velvetleaf; test: Test A postemergence; assay type: in vivo, Abutilon theophrasti
Procedure, shortened: as §1

[15] = system: foxtail, giant; test: Test A preemergence; assay type: in vivo, Setaria faberii; conditions: for Foxtail, Giant plant response rating (0 to 100 scale): visual injury approx. 10 days after treatment
Procedure, shortened: as §1

[16] = system: morningglory; test: Test A postemergence; assay type: in vivo, Ipomoea spp.
Procedure, shortened: as §1

[17] = system: barnyardgrass; test: Test B flood; assay type: in vivo, Echinochloa crus-galli; conditions: 250 g ai/ha, visual rating on 0 to 100 scale (0 no effect, 100 complete control), 13 to 15 days
Procedure, shortened: as §2

[18] = system: corn; test: Test A postemergence; assay type: in vivo, Zea mays
Procedure, shortened: as §1

[19] = system: barnyardgrass; test: Test A postemergence; assay type: in vivo, Echinochloa crus-galli
Procedure, shortened: as §1

[20] = system: wheat; test: Test A preemergence; assay type: in vivo, Triticum aestivum; conditions: preemergence; for Wheat plant response rating (0 to 100 scale): visual injury approx. 10 days after treatment
Procedure, shortened: as §1

[21] = preemergence, 500 g ai/ha, visual injury after approx. 10 days, 0 to 100 scale (0 no effect, 100 complete control)
[22] = Postemergence, 500 g ai/ha, 0 to 100 scale (0 no effect, 100 complete control)
[23] = postemergence, 125 g ai/ha, about 10 days, visual rating on 0 to 100 scale (0 no effect, 100 complete control)
[24] = preemergence, 125 g ai/ha, visual injury, 0 to 100 scale, approx. 10 days
[25] = 500 g ai/ha, visual injury after approx. 10 days, 0 to 100 scale (0 no effect, 100 complete control)
[26] = Postemergence, 125 g ai/ha, 0 to 100 scale, 0 no effect, 100 complete control
[27] = Preemergence, 500 g ai/ha, 0 to 100 scale, 0 no effect, 100 complete control
[28] = Postemergence, 500 g ai/ha, visual rating after approx. 10 days, 0 to 100 scale (0 no effect, 100 complete control)

## COCc1cc(C(=O)NC2CC2)nn1Cc1ccnc(C(F)(F)F)c1 [Compound 167]
[1]; preemergence, 125 g ai/ha
  Pigweed plant response rating (0 to 100 scale): 100
[1]; [21]
  Pigweed plant response rating: 100
[2]; preemergence, 125 g ai/ha
  Corn plant response rating (0 to 100 scale): 0
[2]; [21]
  Corn plant response rating: 40
[3]; preemergence, 125 g ai/ha
  Crabgrass, Large plant response rating (0 to 100 scale): 80
[3]; [21]
  Crabgrass, Large plant response rating: 100
[4]; [22]
  Crabgrass, Large plant response rating: 80
[4]; [23]
  Crabgrass, Large plant response rating: 20
[5]; [22]
  Foxtail, Giant plant response rating: 90
[5]; [23]
  Foxtail, Giant plant response rating: 40
[6]; [22]
  Wheat plant response rating: 30
[6]; [23]
  Wheat plant response rating: 0
[7]; [22]
  Pigweed plant response rating: 100
[7]; [23]
  Pigweed plant response rating: 70
[8]; preemergence, 125 g ai/ha
  Velvetleaf plant response rating (0 to 100 scale): 30
[8]; [21]
  Velvetleaf plant response rating: 100
[9]
  Plant response rating, Sedge, Umbrella: 70
[10]; [24]
  Barnyardgrass plant response rating: 30
[10]; [21]
  Barnyardgrass plant response rating: 100
[11]
  Plant response rating, Ducksalad: 80
[12]
  Plant response rating, Rice: 20
[13]; preemergence, 125 g ai/ha
  Morningglory plant response rating (0 to 100 scale): 50
[13]; [21]
  Morningglory plant response rating: 100
[14]; [22]
  Velvetleaf plant response rating: 60
[14]; [23]
  Velvetleaf plant response rating: 30
[15]; preemergence, 125 g ai/ha
  Foxtail, Giant plant response rating (0 to 100 scale): 90
[15]; [21]
  Foxtail, Giant plant response rating: 100
[16]; [22]
  Morningglory plant response rating: 100
[16]; [23]
  Morningglory plant response rating: 80
[17]
  Plant response rating, Barnyardgrass: 20
[18]; [22]
  Corn plant response rating: 70
[18]; [23]
  Corn plant response rating: 10
[19]; [22]
  Barnyardgrass plant response rating: 80
[19]; [23]
  Barnyardgrass plant response rating: 20
[20]; 125 g ai/ha
  Wheat plant response rating (0 to 100 scale): 0
[20]; [25]
  Wheat plant response rating: 50

## COCc1cc(C(=O)NCC(F)(F)F)nn1Cc1cc(C(F)(F)C(F)(F)F)nn1C [Compound 225]
[1]; preemergence, 125 g ai/ha
  Pigweed plant response rating (0 to 100 scale): 20
[2]; preemergence, 125 g ai/ha
  Corn plant response rating (0 to 100 scale): 0
[2]; [21]
  Corn plant response rating: 20
[3]; preemergence, 125 g ai/ha
  Crabgrass, Large plant response rating (0 to 100 scale): 20
[3]; [21]
  Crabgrass, Large plant response rating: 90
[4]; [26]
  Crabgrass, Large plant response rating: 40
[4]; [22]
  Crabgrass, Large plant response rating: 70
[5]; [26]
  Foxtail, Giant plant response rating: 10
[5]; [22]
  Foxtail, Giant plant response rating: 60
[6]; [26]
  Wheat plant response rating: 0
[6]; [22]
  Wheat plant response rating: 0
[7]; [26]
  Pigweed plant response rating: 0
[7]; [22]
  Pigweed plant response rating: 0
[8]; preemergence, 125 g ai/ha
  Velvetleaf plant response rating (0 to 100 scale): 0
[9]
  Plant response rating, Sedge, Umbrella: 50
[10]; preemergence, 125 g ai/ha, visual injury approx. 10 days after treatment
  Barnyardgrass plant response rating (0 to 100 scale, 0 is no effect, 100 is complete control): 10
[10]; [21]
  Barnyardgrass plant response rating: 80
[11]
  Plant response rating, Ducksalad: 55
[12]
  Plant response rating, Rice: 0
[13]; preemergence, 125 g ai/ha
  Morningglory plant response rating (0 to 100 scale): 30
[14]; [26]
  Velvetleaf plant response rating: 20
[14]; [22]
  Velvetleaf plant response rating: 30
[15]; preemergence, 125 g ai/ha
  Foxtail, Giant plant response rating (0 to 100 scale): 20
[15]; [21]
  Foxtail, Giant plant response rating: 70
[16]; [26]
  Morningglory plant response rating: 10
[16]; [22]
  Morningglory plant response rating: 60
[17]
  Plant response rating, Barnyardgrass: 0
[18]; [26]
  Corn plant response rating: 10
[18]; [22]
  Corn plant response rating: 30
[19]; [26]
  Barnyardgrass plant response rating: 10
[19]; [22]
  Barnyardgrass plant response rating: 30
[20]; 125 g ai/ha
  Wheat plant response rating (0 to 100 scale): 0

## Cc1cc(C(=O)NC2CC2)nn1Oc1ccnc(C(F)(F)F)c1 [Compound 81]
[1]; [27]
  Pigweed plant response rating: 90
[1]; [24]
  Pigweed plant response rating: 40
[2]; [27]
  Corn plant response rating: 0
[2]; [24]
  Corn plant response rating: 0
[3]; [27]
  Crabgrass, Large plant response rating: 100
[3]; [24]
  Crabgrass, Large plant response rating: 60
[4]; [28]
  Crabgrass, Large plant response rating: 40
[4]; [23]
  Crabgrass, Large plant response rating: 10
[5]; [28]
  Foxtail, Giant plant response rating: 30
[5]; [23]
  Foxtail, Giant plant response rating: 10
[6]; [28]
  Wheat plant response rating: 0
[6]; [23]
  Wheat plant response rating: 0
[7]; [28]
  Pigweed plant response rating: 50
[7]; [23]
  Pigweed plant response rating: 30
[8]; [27]
  Velvetleaf plant response rating: 60
[8]; [24]
  Velvetleaf plant response rating: 0
[9]
  Plant response rating, Sedge, Umbrella: 0
[10]; [27]
  Barnyardgrass plant response rating: 70
[10]; [24]
  Barnyardgrass plant response rating: 20
[11]
  Plant response rating, Ducksalad: 0
[12]
  Plant response rating, Rice: 0
[13]; [27]
  Morningglory plant response rating: 60
[13]; [24]
  Morningglory plant response rating: 0
[14]; [28]
  Velvetleaf plant response rating: 30
[14]; [23]
  Velvetleaf plant response rating: 20
[15]; [27]
  Foxtail, Giant plant response rating: 100
[15]; [24]
  Foxtail, Giant plant response rating: 30
[16]; [28]
  Morningglory plant response rating: 50
[16]; [23]
  Morningglory plant response rating: 30
[17]
  Plant response rating, Barnyardgrass: 0
[18]; [28]
  Corn plant response rating: 20
[18]; [23]
  Corn plant response rating: 10
[19]; [26]
  Barnyardgrass plant response rating: 0
[19]; [28]
  Barnyardgrass plant response rating: 20
[20]; 125 g ai/ha, visual injury, 0 to 100 scale, approx. 10 days
  Wheat plant response rating: 0
[20]; [25]
  Wheat plant response rating: 10
